Laboratory results: patent US11192900B2, “Substituted 1,6-dihydropyridinones and 1,2-dihydroisoquinolinones as bet inhibitors” (NUVATION BIO INC., priority 2018, dated 2021)
pIC50: −log10 of the molar value.

How the values were obtained:
[1] = system: 22Rv1 human prostate carcinoma cell line; assay: Cell viability assay (resazurin); type: cell-based; settings: 22Rv1, resazurin, 72 hrs
Protocol: The effects of test compounds were also studied in the 22Rv1 human prostate carcinoma and MDA-MB-231 human breast adenocarcinoma cell lines. The cells were harvested during the logarithmic growth period and counted. Cells were seeded at a count of 3000 cells (22Rv1) or 5000 cells (MDA-MB-231) per well/100 μl in a 96-well plate. After seeding, cells were incubated at 37° C., 5% CO2 for 24 hr. Cells were treated with test compounds at 8 concentrations within a desired concentration range (e.g. 5 nM-10 μM) for generation of dose response curves by preparing serial dilutions of the test compound in DMSO which were further diluted with culture medium and then added to each well. The plate was further incubated for another 72 hrs (22Rv1) or 96 hrs (MDA-MB-231) in humidified incubator at 37° C. and 5% CO2. The assay was terminated by addition of resazurin (# R7017, Sigma). The plate was incubated for 4 hr at 37° C., 5% CO2 and fluorescence was measured using excitation and emission wavelengths of 535 and 590 nm, respectively. Cell viability data were plotted using GraphPad Prism (GraphPad Software, Inc., San Diego, Calif.). In addition, a nonlinear regression model with a sigmoidal dose response and variable slope within GraphPad Prism was used to calculate the IC50 value of individual test compounds.

[2] = system: IEC-6 rat intestinal epithelial cell line; assay: IEC-6 cell viability, Protocol B (toxicity to non-cancerous cells); type: cell-based; settings: Rattus norvegicus; IEC-6, 4000 cells per well, 48 hrs
Protocol: The effects of test compounds were also studied in the IEC-6 rat intestinal epithelial cell line to assess potential toxicity to non-cancerous cells. The cells were harvested during the logarithmic growth period and counted. In Protocol A, cells were seeded at a count of 3000 cells per well/100 μl in a 96-well plate. After seeding, cells were incubated at 37° C., 5% CO2 for 24 hr. Cells were treated with test compounds at 8 concentrations within a desired concentration range (e.g. 5 nM-10 μM) for generation of dose response curves by preparing serial dilutions of the test compound in DMSO which were further diluted with culture medium and then added to each well. The plate was further incubated for another 96 hrs in humidified incubator at 37° C. and 5% CO2. The assay was terminated by addition of resazurin (# R7017, Sigma). The plate was incubated for 4 hr at 37° C., 5% CO2 and fluorescence was measured using excitation and emission wavelengths of 535 and 590 nm, respectively. Cell viability data were plotted using GraphPad Prism (GraphPad Software, Inc., San Diego, Calif.). In addition, a nonlinear regression model with a sigmoidal dose response and variable slope within GraphPad Prism was used to calculate the IC50 value of individual test compounds. Protocol B was the same as Protocol A except that cells were seeded at a count of 4000 cells per well/100 μl in a 96-well plate, and the incubation with test compound was for 48 hrs instead of 96 hrs.

[3] = system: MV-4-11 human acute myeloid leukemia cell line; assay: Second cell viability assay in MV-4-11 (Cell Titer-Glo); type: cell-based; settings: Homo sapiens; MV4-11, Cell Titer-Glo, 72 hrs; read-out: Cell Viability IC50 in MV4-11 cells
Protocol: The effects of test compounds were studied in a second cell viability assay in the MV-4-11 human acute myeloid leukemia cell line. The cells were harvested during the logarithmic growth period and counted. Cells were seeded at a count of 15000 cells per well/100 μl. After seeding, cells were incubated at 37° C., 5% CO2 for 1 hr. Cells were treated with test compounds at 8 concentrations within a desired concentration range (e.g. 5 nM-[…]) for generation of dose response curves by preparing serial dilutions of the test compound in DMSO which were further diluted with culture medium and then added to each well. The plate was further incubated for another 72 hrs in a humidified incubator at 37° C. and 5% CO2. The assay was terminated by addition of Cell Titer-Glo reagent (Promega, Madison, Wis.) at ¼ the volume of total medium per well. Contents were mixed, the plate was incubated for 10 min at room temperature and luminescence was measured. Cell viability data were plotted using GraphPad Prism (GraphPad Software, Inc., San Diego, Calif.). In addition, a nonlinear regression model with a sigmoidal dose response and variable slope within GraphPad Prism was used to calculate the IC50 value of individual test compounds.

BRD4-1 = BRD4-1 (Homo sapiens (Human), UniProt O60885); assay: Bromodomain and Extraterminal Domain (BET) Binding Assay; settings: Table 3; read-out: BRD4-1 IC50
Procedure, shortened: (§1)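 AlphaScreen displacement of biotinylated H4 (1-21) K5/8/12/16Ac peptide, in 50 mM HEPES pH 7.5, 100 mM NaCl, 1 mg/ml BSA, 0.05% CHAPS, 0.5% DMSO. Protein-compound preincubation 30 min RT, then ligand 30 min, donor then acceptor beads 60 min dark. Inhibition versus plate controls; IC50 from 10-point titrations.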

BRD4-2 = BRD4-2 (Homo sapiens (Human), UniProt O60885); assay: as above; settings: Table 3; read-out: BRD4-2 IC50
Procedure, shortened: as §1

pIC50 [1]: 5.18
pIC50 [3]: 5.61
pIC50 (BRD4-1): 5.09
pIC50 (BRD4-2): 6.53
SMILES: CC(=O)Nc1ccc(Oc2c(C)cc(F)cc2C)c(-n2cc(C)c(=O)c3ccccc32)c1 [Compound 710, N-(4-(4-fluoro-2,6-dimethylphenoxy)-3-(3-methyl-4-oxoquinolin-1(4H)-yl)phenyl)acetamide]
pIC50 [2]: 5.12
